Measurements: patent publication US20210115000A1, “NILE RED DERIVATIVES FOR IMPROVED RATIOMETRIC IMAGING FOR NERVE SPECIFIC CONTRAST” (Oregon Health & Sciences University, priority 2018, published 2021)
“Also recorded” adds a separate entry of the source. Each block holds one compound with its values, some of them ahead of it.

How the values were obtained:
[1] = Spectroscopic analysis: absorbance, emission and quantum yield of Nile Red derivatives; type: physicochemical
Protocol: Tandem liquid chromatography mass spectroscopy (LCMS) analysis (Agilent 1260 LC system with a 6224 time of flight (TOF) MS, Agilent, Santa Clara, Calif.) was performed using a 2.7 micron C18 column (4.6×50 mm, Agilent). High performance liquid chromatography (HPLC) purification (Agilent 1260 system with a preparative pump) was performed using a 5 micron C18 column (21.2×150 mm, Agilent). For both HPLC and LCMS, the mobile phase consisted of HPLC grade acetonitrile and water, treated with 0.1% formic acid. Spectroscopic analysis was performed on a Spectramax M5 spectrometer (Molecular Devices, Sunnyvale, Calif.) using a quartz cuvette with a 1 cm pathlength. Quantum yield was calculated according to equation (1).
Where Ø is the quantum yield, F is the integrated fluorescence intensity, f is the absorbance at the excitation wavelength and n is the refractive index of the solvent. S refers to the quantum yield standard (Rhodamine B)^25 and X refers to the unknown sample.

[2] = tested on: sciatic nerve or brachial plexus nerve sites (adipose, nerve, muscle tissue); experiment: In vivo imaging following direct/topical administration on rodent nerve sites; design: species or system male CD-1 mice; conditions: for nerve accumulation: summary of in vitro, ex vivo and in vivo characterization
Excerpt: In vivo images were acquired using a previously published, custom-built small animal fluorescence imaging system, described briefly here.^27 Fluorescent images were obtained using a Qimaging EXi Blue monochrome camera (Surrey, British Columbia, CA) with a removable Bayer mask for collection of co-registered color and fluorescence images. A Photofluor II broad band light source (89 North) was expanded onto the surgical field through a liquid light guide and used unfiltered for white light illumination. Nile Red and NR5 were excitated using a 545 t 12.5 nm bandpass filter, while fluorescence emission images were collected with a 605±35 nm bandpass filter. Oxazine 4 (Exciton, West Chester, Ohio) was used for nerve and adipose co-staining and ratiometic imaging studies. Oxazine 4 was excited using a 620±30 nm bandpass filter, while fluorescence emission images were collected through a 700±37.5 nm bandpass filter. Approval for the use of animals in the study was obtained from the Institutional Animal Care and Use Committee (IACUC) at Oregon Health and Science University (OHSU). In vivo staining studies were carried out on male CD-1 mice using an optimized direct/topical administration protocol.^2 Staining was performed concurrently on no more than two nerve sites (sciatic nerve or brachial plexus) per mouse. Nile Red and all Nile Red derivatives were formulated in a previously published co-solvent formulation (10% DMSO, 5% Kolliphor, 63.75% serum and 21.25% PBS^14) at a final concentration of 100 μM. Each formulated fluorophore was incubated for 5 minutes on the nerve site (n=4 nerve sites/fluorophore), followed by 9 short flushes with PBS. The nerve site was then incubated with blank co-solvent not containing fluorophore for 5 minutes, followed again by 9 short flushes with PBS.

[3] = tested on: nerve, adipose and muscle tissue at nerve sites; experiment: In vivo co-staining with Oxazine 4, ratiometric imaging and ROC curve analysis; design: species or system male CD-1 mice; conditions: for ROC AUC of nerve-to-muscle contrast, change: 30 min after staining compared to immediately following staining
Excerpt: In vivo images were acquired using a previously published, custom-built small animal fluorescence imaging system, described briefly here.^27 Fluorescent images were obtained using a Qimaging EXi Blue monochrome camera (Surrey, British Columbia, CA) with a removable Bayer mask for collection of co-registered color and fluorescence images. A Photofluor II broad band light source (89 North) was expanded onto the surgical field through a liquid light guide and used unfiltered for white light illumination. Nile Red and NR5 were excitated using a 545 t 12.5 nm bandpass filter, while fluorescence emission images were collected with a 605±35 nm bandpass filter. Oxazine 4 (Exciton, West Chester, Ohio) was used for nerve and adipose co-staining and ratiometic imaging studies. Oxazine 4 was excited using a 620±30 nm bandpass filter, while fluorescence emission images were collected through a 700±37.5 nm bandpass filter. Approval for the use of animals in the study was obtained from the Institutional Animal Care and Use Committee (IACUC) at Oregon Health and Science University (OHSU). In vivo staining studies were carried out on male CD-1 mice using an optimized direct/topical administration protocol.^2 Staining was performed concurrently on no more than two nerve sites (sciatic nerve or brachial plexus) per mouse. Nile Red and all Nile Red derivatives were formulated in a previously published co-solvent formulation (10% DMSO, 5% Kolliphor, 63.75% serum and 21.25% PBS^14) at a final concentration of 100 μM. Each formulated fluorophore was incubated for 5 minutes on the nerve site (n=4 nerve sites/fluorophore), followed by 9 short flushes with PBS. The nerve site was then incubated with blank co-solvent not containing fluorophore for 5 minutes, followed again by 9 short flushes with PBS. In vivo co-staining was completed with (1) Nile Red and Oxazine 4 as well as (2) NR5 and Oxazine 4. For these studies, co-solvent formulated Oxazine 4 ([…]) was incubated on the nerve site for 5 minutes followed by 9 short flushes with PBS. The co-solvent formulated Nile Red or NR5 (100 μM) was then incubated on the nerve site for 5 minutes and also followed by 9 short flushes with PBS. Co-registered (1) Nile Red and Oxazine 4 or (2) NR5 and Oxazine 4 images were collected from n=4 nerve sites per groups (1) and (2). Ratiometric images were calculated and quantified using region of interest analysis on the white light images to identify the nerve, adipose and muscle tissue types. Due to the known cross talk of Oxazine 4 into the Nile Red channel,^2 the Oxazine 4 image was subtracted from the Nile Red or NR5 image resulting in an image of only adipose. The ratiometric images were then calculated as the Oxazine 4 image minus the corrected Nile Red or NR5 image divided by the corrected Nile Red or NR5 image. Receiver Operator Characteristic (ROC) curve analysis was performed to assess differences between the ratiometric images, where the area under the curve (AUC) was used as the metric to differentiate between groups (1) and (2) using custom written MatLab code.^28

[4] = 100 μM, immediately following direct administration
[5] = 30 minutes post direct administration
[6] = immediately following direct administration

Compound: CCN(CC)c1ccc2nc3c4ccc(-c5ccc(C#N)cc5)cc4c(=O)cc-3oc2c1 [NR5, 4-(9-(diethylamino)-5-oxo-5H-benzo[a]phenoxazin-3-yl)benzonitrile]
Max Abs ([1]; in DMSO): 560 nm
Max Em ([1]; in DMSO): 640 nm
Stokes Shift ([1]; in DMSO): 80 nm
QY (quantum yield) ([1]; in DMSO, standard Rhodamine B): 0.54
tissue specific fluorescence intensity [2, 4]: highest fluorescence signal compared to the other Nile Red derivatives; also recorded: highest fluorescence intensity in the adipose, nerve and muscle tissues of the synthesized Nile Red derivatives
adipose to nerve contrast [2, 5]: higher adipose-to-nerve contrast compared to Nile Red; also recorded: increased
adipose to muscle ratio [2, 6]: lower than Nile Red, adipose to muscle contrast was similar
adipose to nerve ratio [2, 6]: increased contrast over control autofluorescence with similar adipose to nerve contrast
tissue-specific contrast, adipose signal ([2]; out to 120 minutes after direct administration): adipose signal was maintained throughout the 120 minute imaging time
nerve accumulation [2]: minimal nerve accumulation
ROC AUC of nerve-to-muscle contrast, change [3]: little change
z-score, nerve-to-muscle contrast ([3]; NR5 and oxazine 4 costaining versus oxazine 4 alone, 30 min after staining): -21.32
z-score, nerve-to-muscle contrast ([3]; NR5 costaining with oxazine 4 compared to Nile Red costaining with oxazine 4, 30 min after staining): 99.96
z-score, nerve-to-adipose contrast ([3]; NR versus NR5 costaining with oxazine 4, 30 min after staining): 98.20
z-score, nerve-to-adipose contrast ([3]; NR versus NR5 costaining with oxazine 4, first time point (immediately after staining implied)): 25.26
z-score, nerve-to-muscle contrast ([3]; NR versus NR5 costaining with oxazine 4, immediately following staining): 21.87
ROC AUC nerve contrast ([3]; costaining with Oxazine 4, 30 minutes post direct administration): improved nerve to adipose and nerve to muscle contrast ratios; also recorded: significantly higher nerve-to-adipose contrast
ROC AUC nerve contrast ([3]; costaining with Oxazine 4, immediately following direct administration): slightly improved values
z-score, nerve-to-adipose contrast ([3]; oxazine 4 only staining versus NR5 costaining with oxazine 4, 30 min after staining): 16.12
z-score, nerve-to-adipose contrast ([3]; oxazine 4 only staining versus NR5 costaining with oxazine 4, first time point (immediately after staining implied)): 28.63
z-score, nerve-to-muscle contrast ([3]; oxazine 4 only staining versus NR5 costaining with oxazine 4, immediately following staining): 15.22

Max Abs ([1]; in DMSO): 550 nm
Max Em ([1]; in DMSO): 630 nm
absorbance maximum ([1]; in toluene): 520 nm
emission maximum ([1]; in toluene): 570 nm
Compound: CCN(CC)c1ccc2nc3c4ccccc4c(=O)cc-3oc2c1 [Nile Red]
tissue specific fluorescence intensity [2, 4]: highest fluorescence signal compared to the other Nile Red derivatives; also recorded: strong fluorescence intensity
tissue specific fluorescence intensity ([2]; 30 minutes after direct administration): decrease in adipose, nerve and muscle fluorescence
adipose to muscle contrast [2, 5]: greatest
adipose to nerve contrast [2, 5]: decreased
adipose to muscle ratio [2, 6]: greatest adipose to muscle contrast
adipose to nerve ratio [2, 6]: increased contrast over control autofluorescence with similar adipose to nerve contrast
nerve accumulation [2]: some nerve accumulation
ROC AUC of nerve-to-muscle contrast, change [3]: substantial drop in AUC value
